How the values were obtained:
Type in all cases: physicochemical
[1] = Solubility test of the additive alone in dichloromethane/methanol mixed solvent (visual, after 4 days); settings: for Solubility S0 (solids weight concentration at the dissolution limit): CH2Cl2/CH3OH 87/13
Method: The solubility of the functional additives was measured as follows.
1. Solutions were prepared by adjusting each concentration in a 50 cc screw cap bottle.
2. Allowed to stand at room temperature for 4 days. Here, the results of the solubility changed between 1 day and 4 days in some cases, and evaluation of the solubility was carried out after 4 days as a time when equilibrium was reached.
3. Samples were prepared in the same manner at other temperatures (20° C., 35° C.), and the solubility after allowing to stand for 4 days was visually inspected.
Predetermined amounts of Example Compounds I-(51) and I-(2) were weighed into a mixed solvent of dichloromethane and methanol, and the solubility was measured by changing the mixing ratio of the organic solvents.
The solubility (solids weight concentration at the dissolution limit was calculated as (C1+C2)/2 when the concentration limit at which it could be dissolved was C1 and the concentration limit at which it could not be dissolved was C2) of the retardation control agent in a mixed solvent having an initial methylene chloride/methanol composition ratio of 87/13 was defined as S0, and the solubility of the retardation control agent when the solvent composition changed, during drying, to 74/26 where the methanol wt % was the maximum was defined as S1. The temperature at which the solubility was measured is denoted by the figure in brackets.

[2] = as above
[3] = Measurement of micro heat of solution (multi-purpose calorimeter MPC-110); settings: for Degree of stabilization: Table 15; for Heat of solution ΔH0: solvent alone, 26.0° C.
Method: (2 Measurement of Micro Heat of Solution)
The heat of solution (dissolution enthalpy ΔH) of functional additives was measured as follows, using a multi-purpose calorimeter (MPC-110) manufactured by Tokyo Rikou as a micro heat of solution measuring instrument.
1. Solvent liquids and concentrated solutions were prepared beforehand in 1 L bottles.
2. Preparation of ampoule tubes
(1) Additives (powdered solid) were ground by a mortar and the granules were made uniform.
(2) A required amount (252 mg) of the additive to be measured was weighed into an ampoule tube for measurement of the micro heat of solution.
(3) The neck of the ampoule tube was heated sufficiently by a gas burner so as to seal the ampoule tube.
3. 50 g of the prepared solvent liquid or the concentrated solution was weighed into a measuring vessel. This amount was selected as an amount sufficient to immerse the ampoule tube in the solvent liquid when set in the measuring instrument.
4. The ampoule tube was set in the measuring instrument, which was equipped with an ampoule sealing mechanism, the measuring vessel was hermetically sealed with the ampoule sealing mechanism after confirming that the ampoule tube was immersed in the solvent liquid, it was placed in a constant temperature bath (26.0° C.), and stirring was started.
5. After confirming that the measuring instrument placed in the constant temperature bath had reached equilibrium temperature (about 8 to 12 hours) the ampoule tube was broken so as to mix the additive with the solvent liquid or the concentrated solution.
6. The total amount of heat generated was recorded.
7. The Joule's heat generated was measured by applying a known voltage to the measurement system for an appropriate time, and the recorded chart area for each measurement cell was calibrated using a known amount of heat.
8. The heat of solution of the sample was calculated from the Joule's heat and the measured sample area.
Shown in Table 11 are the solvent composition (wt %) and the solids composition (parts by weight) of the mother liquor when measuring the heat of solution, the type of retardation control agent sealed in the ampoule tube (Example Compounds I-(51) or I-(2)), and the results of measurement of the heat of solution.
The identification symbols of elements constituting the system are as follows: a denotes triacetylcellulose/plasticizer, b denotes triacetylcellulose, and c denotes plasticizer. For example, 2-87a denotes that the retardation control agent is the Example Compound I-(2), the solvent composition (wt %) is dichloromethane/methanol=87/13, and the solids constituting the system are triacetylcellulose and the plasticizer.
The heat of solution ΔH0 denotes the heat of solution (heat absorption) generated when there is no solid in the system (before breaking the ampoule tube) and the retardation control agent is dissolved in a solvent alone. […] The solids concentration of the system when saturation starts is defined as the saturation heat of solution solids concentration (wt %).
In all cases, when the solids concentration of the system is increased, the heat of solution either remains unchanged from that at a solids concentration of 0 wt % (the saturation heat of solution solids concentration is 0) or decreases and becomes saturated. […] This degree of stabilization is expressed as ΔH0−ΔHs, which is the decrease in the heat of solution.

[4] = initial 87/13 vs 74/26, at any of 25° C., 20° C., 35° C.
[5] = 87/13, solids a: triacetylcellulose/plasticizer
[6] = 87/13, solids b: triacetylcellulose only
[7] = 87/13, solids c: plasticizer only

Cc1cccc(Nc2nc(Nc3cccc(C)c3)nc(Nc3cccc(C)c3)n2)c1 [Example Compound I-(51)]
Ratio S1/S0 ([1]; 20° C., 87/13 vs 74/26): 0.455 | Solubility S0 (solids weight concentration at the dissolution limit) ([1]; 20° C.): 27.5 wt % | Ratio S1/S0 ([1]; 25° C., 87/13 vs 74/26): 0.467 | Difference S0 − S1 ([1]; 35° C., 87/13 vs 74/26): 15 wt % | Ratio S1/S0 ([1]; 35° C., 87/13 vs 74/26): 0.455 | Solubility S1 (solids weight concentration at the dissolution limit) ([1]; 35° C., CH2Cl2/CH3OH 74/26): 12.5 wt % | Solubility S0 (solids weight concentration at the dissolution limit) ([1]; 35° C.): 27.5 wt % | Difference S0 − S1 ([2]; 20° C., 87/13 vs 74/26): 15 wt % | Difference S0 − S1 ([2]; 20° C., 92/8 vs 91/9): 0 wt % | Ratio S1/S0 ([2]; 20° C., 92/8 vs 91/9): 1.000 | Solubility S1 (solids weight concentration at the dissolution limit) ([2]; 20° C., CH2Cl2/CH3OH 74/26): 12.5 wt % | Solubility S1 (solids weight concentration at the dissolution limit) ([2]; 20° C., CH2Cl2/CH3OH 91/9): 27.5 wt % | Solubility S0 (solids weight concentration at the dissolution limit) ([2]; 20° C., CH2Cl2/CH3OH 92/8): 27.5 wt % | Difference S0 − S1 ([2]; 25° C., 87/13 vs 74/26): 20 wt % | Difference S0 − S1 ([2]; 25° C., 92/8 vs 91/9): 0 wt % | Ratio S1/S0 ([2]; 25° C., 92/8 vs 91/9): 1.000 | Solubility S1 (solids weight concentration at the dissolution limit) ([2]; 25° C., CH2Cl2/CH3OH 74/26): 17.5 wt % | Solubility S0 (solids weight concentration at the dissolution limit) ([2]; 25° C., CH2Cl2/CH3OH 87/13): 37.5 wt % | Solubility S1 (solids weight concentration at the dissolution limit) ([2]; 25° C., CH2Cl2/CH3OH 91/9): 37.5 wt % | Solubility S0 (solids weight concentration at the dissolution limit) ([2]; 25° C., CH2Cl2/CH3OH 92/8): 37.5 wt % | Difference S0 − S1 ([2]; 35° C., 92/8 vs 91/9): 0 wt % | Ratio S1/S0 ([2]; 35° C., 92/8 vs 91/9): 1.000 | Solubility S1 (solids weight concentration at the dissolution limit) ([2]; 35° C., CH2Cl2/CH3OH 91/9): 27.5 wt % | Solubility S0 (solids weight concentration at the dissolution limit) ([2]; 35° C., CH2Cl2/CH3OH 92/8): 27.5 wt % | Difference in solubility S0−S1 [2, 4]: ≥ 15 wt % | Ratio S1/S0 of the solubility [2, 4]: less than 0.5 | Degree of stabilization (ΔH0 − ΔHs) ([3]; 50/50, solids a): 0 kcal/mol | Saturation heat of solution solids concentration ([3]; 50/50, solids a): 0 wt % | Heat of solution ΔHs ([3]; 50/50, solids a: triacetylcellulose/plasticizer): 4.25 kcal/mol | Degree of stabilization (ΔH0 − ΔHs) ([3]; 74/26, solids a): 0 kcal/mol | Saturation heat of solution solids concentration ([3]; 74/26, solids a): 0 wt % | Heat of solution ΔHs ([3]; 74/26, solids a: triacetylcellulose/plasticizer): 4.56 kcal/mol | Degree of stabilization (ΔH0 − ΔHs) [3, 5]: 0.5 kcal/mol | Saturation heat of solution solids concentration [3, 5]: 5 wt % | Heat of solution ΔHs ([3]; 87/13, solids a: triacetylcellulose/plasticizer (TPP/BDP)): 4.35 kcal/mol | Degree of stabilization (ΔH0 − ΔHs) [3, 6]: 0.6 kcal/mol | Heat of solution ΔHs [3, 6]: 4.25 kcal/mol | Saturation heat of solution solids concentration [3, 6]: 5 wt % | Degree of stabilization (ΔH0 − ΔHs) [3, 7]: 0 kcal/mol | Heat of solution ΔHs [3, 7]: 4.85 kcal/mol | Saturation heat of solution solids concentration [3, 7]: 0 wt % | Degree of stabilization (ΔH0 − ΔHs) ([3]; 92/8, solids a): 0.8 kcal/mol | Saturation heat of solution solids concentration ([3]; 92/8, solids a): 7 wt % | Heat of solution ΔHs ([3]; 92/8, solids a: triacetylcellulose/plasticizer): 4.23 kcal/mol | Degree of stabilization (ΔH0 − ΔHs) ([3]; 100/0, solids a): 1.48 kcal/mol | Saturation heat of solution solids concentration ([3]; 100/0, solids a): 10 wt % | Heat of solution ΔHs ([3]; 100/0, solids a: triacetylcellulose/plasticizer): 3.79 kcal/mol | Degree of stabilization ([3]; dope Table 12, solvent composition 87/13): 0.50 kcal/mol | Degree of stabilization ([3]; dope Table 13, solvent composition 92/8): 0.80 kcal/mol | Degree of stabilization ([3]; dope Table 14, solvent composition 74/26): 0 kcal/mol | Stabilization by solids in the system (in words) ([3]; case c: only the plasticizer present in the system): not stabilized | Heat of solution ΔH0 ([3]; dichloromethane/methanol 50/50 wt %): 4.25 kcal/mol | Heat of solution ΔH0 ([3]; dichloromethane/methanol 74/26 wt %): 4.56 kcal/mol | Heat of solution ΔH0 ([3]; dichloromethane/methanol 87/13 wt %): 4.85 kcal/mol | Heat of solution ΔH0 ([3]; dichloromethane/methanol 92/8 wt %): 5.03 kcal/mol | Heat of solution ΔH0 ([3]; dichloromethane/methanol 100/0 wt %): 5.27 kcal/mol

From patent US20060051526A1, “Process for producing cellulose acylate film” (Fuji Photo Film Co., Ltd., priority 2002, published 2006)
